Measured values taken from US9464092B2, “Transient protection of normal cells during chemotherapy” (G1 Therapeutics, Inc., priority 2013, dated 2016).

Tests used:
[1] = tested on: 456 (395 non-mutant) kinases; assay: DiscoveRx KINOMEscan kinase profiling; format: binding; conditions: 1000 nM
Procedure: The compound was screened using a single concentration of 1000 nM (>1000 times the 1050 on Cdk4). Results from this screen confirmed the high potency against Cdk4 and high selectivity versus Cdk2.

HSPCs (bone marrow) = assay: HSPC proliferation in bone marrow by EdU incorporation after oral gavage; format: in vivo, mice
Procedure: Mice were then sacrificed at the indicated times (0, 12, 24, 36, or 48 hours following compound administration), and bone marrow was harvested (n=3 mice per time point), as previously described (Johnson et al. J. Clin. Invest. (2010) 120(7), 2528-2536). Four hours before the bone marrow was harvested, mice were treated with 100 μg of EdU by intraperitoneal injection (Invitrogen). Bone marrow mononuclear cells were harvested and immunophenotyped using previously described methods and percent EdU positive cells were then determined (Johnson et al. J. Clin. Invest. (2010) 120(7), 2528-2536). In brief, HSPCs were identified by expression of lineage markers (Lin-), Sca1 (S+), and c-Kit (K+).
Four hours before animals were sacrificed and the bone marrow was harvested, mice were treated with 100 μg of EdU by intraperitoneal injection. Three mice per group were sacrificed at 12 hours and the remaining three animals per group were sacrificed at 24 hours. Results are shown in FIG. 6A as the ratio of EdU positive cells for treated animals at 12 or 24 hour time points compared to control.
Further experiments were completed with Compound T examining dose response and longer periods of compound treatment. […] […].
Both compounds were administered at 150 mg/kg by oral gavage. One hour prior to harvesting bone marrow, EdU was IP injected to label cycling cells. Bone marrow was harvested at 12, 24, 36, and 48 hours after compound treatment and the percentage of EdU positive HSPC cells was determined at each time point.

[2] = tested on: hematopoietic cells (bone marrow); assay: EdU incorporation in hematopoietic cell lineages of C57Bl/6 mice; format: in vivo; conditions: 150 mg/kg oral gavage, 12 hours
Procedure: Ten-hours later, all mice were given a single i.p. injection of 100 mcg EdU (5-ethynyl-2′-deoxyuridine) to label cells in S-phase of the cell cycle. All treated mice were euthanized 2 hours after EdU injection, bone marrow cells were harvested and processed for flow cytometric analysis of EdU-incorporation (FIG. 13).

[3] = tested on: A2058 cells (CDK4/6-independent cell line); assay: Cell cycle arrest by propidium iodide flow cytometry, A2058; format: cell-based, human; conditions: 300 nM, 24 hours
Description: To test the ability of Cdk4/6 inhibitors to induce a clean G1-arrest, a cell based screening method was used consisting of two Cdk4/6-dependent cell lines (tHS68 and WM2664; Rb-positive) and one Cdk4/6-independent (A2058; Rb-negative) cell line. […] At the conclusion of the experiment, cells were harvested, fixed, and stained with propidium iodide (a DNA intercalator), which fluoresces strongly red (emission maximum 637 nm) when excited by 488 nm light. Samples were run on Dako Cyan flow cytometer and >10,000 events were collected for each sample. Data were analyzed using FlowJo 2.2 software developed by TreeStar, Inc.

tHS68 human fibroblasts = assay: Protection from chemotherapy-induced cell death (Cell TiterGlo); format: cell-based; conditions: etoposide 5 μM or carboplatin 100 μM
Procedure: (§1) Cell survival was determined by Cell TiterGlo assay per manufacturer's recommendations. For both γ-H2AX and caspase 3/7 assays, cells were plated and allowed to become adherent for 24 hours. […] For γ-H2AX, cells were harvested for analysis 8 hours after chemotherapy exposure. For the γ-H2AX assay, cells were fixed, permeabilized, and stained with anti-γ-H2AX as per the γ-H2AX Flow Kit (Millipore) and quantitated by flow cytometry. Data was analyzed using FlowJo 2.2 software developed by TreeStar, Inc. For the in vitro caspase 3/7 assay, cells were harvested 24 hours post chemotherapy treatment. Caspase 3/7 activation was measured using the Caspase-Glo® 3/7 Assay System (Promega) per manufacturer's recommendations.

[4] = tested on: telomerized human diploid fibroblasts (tHDFs); assay: γ-H2AX DNA damage assay in tHDF cells with chemotherapy; format: cell-based; conditions: pretreatment before carboplatin, doxorubicin, etoposide, camptothecin or paclitaxel
Procedure: as §1

[5] = tested on: telomerized human diploid fibroblasts (tHDFs); assay: Caspase 3/7 activation in tHDF cells with chemotherapy; format: cell-based; conditions: pretreatment before carboplatin, doxorubicin, etoposide, camptothecin, and paclitaxel
Procedure: as §1

blood cell counts = assay: 5FU-induced myelosuppression, single dose; format: in vivo, FVB/n female mice; conditions: 150 mg/kg oral, 30 minutes before 5FU 150 mg/kg i.p.
Procedure: Complete blood cell counts were measured every two days starting on day six.

[6] = tested on: human renal proximal tubule cells; assay: DNA cell cycle analysis in human renal proximal tubule cells; format: cell-based; conditions: 24 hours, dose dependent
Description: To test the ability of Cdk4/6 inhibitors to induce a clean G1-arrest in non-hematopoietic cells, G1 arrest was examined in human renal proximal tubule cells. […] At the conclusion of the experiment, cells were harvested, fixed, and stained with propidium iodide (a DNA intercalator), which fluoresces strongly red (emission maximum 637 nm) when excited by 488 nm light. Samples were run on Dako Cyan flow cytometer.

[7] = tested on: human renal proximal tubule cells; assay: γ-H2AX assay in renal proximal tubule cells with cisplatin; format: cell-based; conditions: 10 nM-1 uM with 25 uM cisplatin
Procedure: (§2) Normal renal proximal tubule epithelial cells were obtained from American Type Culture Collection (ATCC, Manassas, Va.). Cells were grown in an incubator at 37° C. in a humidified atmosphere of 5% CO2 in Renal Epithelial Cell Basal Media (ATCC) supplemented with Renal Epithelial Cell Growth Kit (ATCC) in 37° C. humidified incubator. […] For the γ-H2AX assay, cells were fixed, permeabilized, and stained with anti-γ-H2AX as per the γ-H2AX Flow Kit (Millipore) and quantitated by flow cytometry. Data was analyzed using FlowJo 2.2 software developed by TreeStar, Inc. Caspase 3/7 activation was measured using the Caspase-Glo 3/7 Assay System (Promega, Madison, Wis.) by following the manufacturer's instructions.

[8] = tested on: renal proximal tubule epithelial cells; assay: Caspase 3/7 activation in renal proximal tubule epithelial cells with cisplatin; format: cell-based, human; conditions: 30 nM-1 uM with cisplatin 25 uM, 50 uM, or 100 uM
Procedure: Normal renal proximal tubule epithelial cells were obtained from American Type Culture Collection (ATCC, Manassas, Va.). Cells were grown in an incubator at 37° C. in a humidified atmosphere of 5% CO2 in Renal Epithelial Cell Basal Media (ATCC) supplemented with Renal Epithelial Cell Growth Kit (ATCC) in 37° C. humidified incubator. […] Caspase 3/7 activation was measured 24 hours later using the Caspase-Glo 3/7 Assay System (Promega, Madison, Wis.) by following the manufacturer's instructions.
as §2

CN1CCN(c2ccc(Nc3ncc4cc5n(c4n3)C3(CCCCC3)CNC5=O)nc2)CC1 [Compound T]
number of 395 non-mutant kinases inhibited ([1]; inhibitory threshold of 65%): 92 | percent of 395 non-mutant kinases inhibited ([1]; inhibitory threshold of 65%): 23.3% | number of 395 non-mutant kinases inhibited ([1]; inhibitory threshold of 90%): 31 | percent of 395 non-mutant kinases inhibited ([1]; inhibitory threshold of 90%): 7.8% | number of 395 non-mutant kinases inhibited ([1]; inhibitory threshold of 99%): 6 | percent of 395 non-mutant kinases inhibited ([1]; inhibitory threshold of 99%): 1.5% | EdU incorporation into HSPCs at 12 and 24 hours compared to control (HSPCs (bone marrow); 150 mg/kg oral gavage): reduction in EdU incorporation at 12 hours which was starting to return to normal at 24 hours | G1-arrest of bone marrow stem cells (HSPC) (HSPCs (bone marrow); oral gavage, mice): dose dependent, transient, and reversible G1-arrest | inhibition of hematopoietic stem cells (HSC), EdU [2]: 74% | inhibition of multipotent progenitors (MPP), EdU [2]: 90% | reduction in EdU+ cell frequency, B cell progenitors [2]: > 80% | reduction in EdU+ cell frequency, Mac1+G1+ myeloid cells [2]: 46% | reduction in EdU+ cell frequency, T cell progenitors [2]: > 99% | reduction in EdU+ cell frequency, Ter119+ erythroid cells [2]: 58% | reduction in EdU+ cell frequency, lineage restricted myeloid (CMP, GMP and MEP) and lymphoid progenitors (CLP) [2]: 76-92% | reduction of EdU+ cell frequency in unfractionated whole bone marrow cells [2]: ~70% | effect on S-phase peak [3]: does not cause a loss of the S-phase peak | protection from chemotherapy-induced cell death (cell survival) (tHS68 human fibroblasts): selective protection from carboplatin and etoposide-induced cell death | DNA damage as measured by γ-H2AX formation [4]: attenuated DNA damage | caspase 3/7 activation [5]: robust decrease in caspase 3/7 activation in a dose-dependent manner | blood cell counts on day 14 after 5FU (blood cell counts): significant protection of each cell type at Day 14 | recovery of hematopoietic cell lineages after 5FU (blood cell counts): more rapid recovery | G1 cell cycle arrest [6]: robust G1 cell cycle arrest | DNA damage as measured by γ-H2AX formation [7]: attenuated DNA damage | caspase 3/7 activation [8]: dose-dependent reduction in caspase 3/7 activation
